Where no end group is shown, it is not given here. [ ]: non-standard residue; d: D form.
What was measured:
Assay type in all cases: in vivo, BALB/c mice
[1] = system: CT26 colon carcinoma; assay: CTLA-4 peptide vaccines in CT26-BALB/c tumor model
Protocol: (§1) 6-8 weeks old BALB/c mice were vaccinated with MVF-CTLA-4 (59), MVF-CTLA-4 (75), MVF-CTLA-4 (92) or MVF-CTLA-4 (130) for 3 weeks interval. 0.1 mg peptide cancer vaccine mixed with ISA 720 (1:1) used per mouse. Mice were boosted with the designed doses for every 3 weeks intervals. Blood was collected weekly for monitoring antibody titers.
After 2 weeks of the third time immunization (3Y), mice were challenged with 10^5 per mouse CT26 (FIG. 3A). After tumor challenge, the positive control group, we treat the mice with anti-mouse CTLA-4 antibody (clone 9H10) twice a week for up to three weeks, and the negative control group was treated with PBS. Tumor volume was calculated as: Tumor volume (LWW)=(Length×Width×Width)/2. Mean value of tumor growths in BALB/c mice were vaccinated with MVF-CTLA-4 (59), MVF-CTLA-4 (75), MVF-CTLA-4 (92) or MVF-CTLA-4 (130), PBS as negative control and anti-mouse CTLA-4 antibody (clone 9H10) as positive control. […] Individual mouse CT26 tumor growths in each group of mice were vaccinated with MVF-CTLA-4 (59), MVF-CTLA-4 (75), MVF-CTLA-4 (92) or MVF-CTLA-4 (130), PBS as negative control and anti-mouse CTLA-4 antibody (clone 9H10) as positive control (FIG. 3C).
(§2) Mice challenged with tumor cells were monitored at least twice per week and tumor sizes were measured by calipers. Formula: Volume (LWW)=(Length×Width×Width)/2 was used to calculate tumor volumes. […] Data statistical analysis was performed by GraphPad Prism 8.1.2 (GraphPad Software, Inc. San Diego, CA, USA) and the indicated statistical analysis. One-way analysis of variance (one-way ANOVA) and followed by the Tukey's multiple comparisons test were used to compare data in multiple groups or data between groups in multiple groups. And the two-way ANOVA was used to analysis the whole curves comparison. The Log-rank (Mantel-Cox) test was use to compare the survival curves. P value or adjusted p value less than 0.05 was accepted as statistically significant different.

[2] = system: 4T1 breast cancer cells; assay: CTLA-4 peptide vaccines in 4T1-BALB/c tumor model; conditions: for survival versus PBS group (Log-rank test): 4T1
Protocol: 6-8 weeks old BALB/c mice were vaccinated with MVF-CTLA-4 (59), MVF-CTLA-4 (75), MVF-CTLA-4 (92) or MVF-CTLA-4 (130) for 3 weeks interval. 0.1 mg peptide cancer vaccine mixed with ISA 720 (1:1) used per mouse. Mice were boosted with the designed doses for every 3 weeks intervals. Blood was collected weekly for monitoring antibody titers. After 2 weeks of the third time immunization (3Y), mice were challenged with 10^5 per mouse 4T1 (FIG. 4A). After tumor challenge, the positive control group, we treat the mice with anti-mouse CTLA-4 antibody (clone 9H10) twice a week for up to three weeks, and the negative control group was treated with PBS. Tumor volume was calculated as: Tumor volume (LWW)=(Length×Width×Width)/2
as §2

[3] = system: D2F2 mammary tumor cells; assay: CTLA-4 peptide vaccines in D2F2-BALB/c tumor model; conditions: for survival versus PBS group (Log-rank test): D2F2
Protocol: as §1, with “mouse (FIG. 5A).” for “mouse.”, “titers. After 2 weeks of the third time immunization (3Y), mice were challenged with 2×10^5 per mouse D2F2 mammary tumor cells.” for “titers.”
After tumor challenge, the positive control group, we treat the mice with anti-mouse CTLA-4 antibody (clone 9H10) twice a week for up to three weeks, and the negative control group was treated with PBS. Tumor volume was calculated as: Tumor volume (LWW)=(Length×Width×Width)/2.
as §2

[4] = system: CT26 tumor cells; assay: CTLA-4 peptide mimics in CT26-BALB/c tumor model (V32); conditions: CT26, 200 ug peptide mimic from day 1, Day 14
Protocol: 6-8 weeks old BALB/c mice were challenged with 1×10^5 per mouse CT26 tumor cells (FIG. 6A). After tumor challenge, the positive control group, we treat the mice with anti-mouse CTLA-4 antibody (clone 9H10) twice a week, start from day 1 post tumor challenge and the negative control group was treated with PBS. For the CTLA-4 peptide mimic treatment groups, mice were treated with 200 ug peptide mimics as indicated start from day 1 post tumor challenging. All the mice had been treated at day 1, day 2, day 5, day 7, day 9, day 12, day 14, and day 16 post tumor challenge. The immunogenicity (antibody titer) was under detectable. Tumor volume was calculated as: Tumor volume (LWW)=(Length×Width×Width)/2
as §2, with “P value or adjusted p value less than 0.05 was accepted as statistically significant different.” left out

Row | Molecule | tumor volume LWW versus PBS group ([1]; CT26, day 14) | tumor volume LWW versus PBS group ([1]; CT26, day 16) | survival versus PBS group (Log-rank test) [2] | tumor volume LWW versus PBS group ([2]; 4T1, day 14) | tumor volume LWW versus PBS group ([2]; 4T1, day 16) | survival versus PBS group (Log-rank test) [3] | tumor volume LWW versus PBS group ([3]; D2F2, day 14) | tumor volume LWW versus PBS group ([3]; D2F2, day 16) | tumor volume LWW versus PBS group ([3]; D2F2, day 19) | tumor volume LWW versus PBS group ([3]; D2F2, day 21) | other results
1 | KLLSLIKGVIVHRLEGVEGPSLEYASPGKATEVRVTVLRQA-CONH2 (KLLSLIKGVIVHRLEGVEGPSLEYASPGKATEVRVTVLRQA-NH2; not fully specified; printed as KLLSLIKGVIVHRLEGVEGPSLEYASPGKATEVRVTVLRQA-CONH2) [MVF-CTLA-4 (59)] | significant smaller tumor size | significant smaller tumor size | significant longer survival | significant smaller tumor size | significant smaller tumor size | significant different longer survival | significantly smaller tumor size | significantly smaller tumor size | significantly smaller tumor size | significantly smaller tumor size | tumor volume LWW versus PBS group ([1]; CT26, day 14, listed as CTLA-4 (59)): significantly smaller tumor size; tumor volume LWW versus PBS group ([1]; CT26, day 16, listed as CTLA-4 (59)): significantly smaller tumor size; tumor volume LWW versus PBS group ([2]; 4T1, day 14, listed as CTLA-4 (59)): significantly smaller tumor size; tumor volume LWW versus PBS group ([2]; 4T1, day 16, listed as CTLA-4 (59)): significantly smaller tumor size
2 | H2N-YIQTGNGIGLYYPPPYMLEVK-CONH2 (H-[dY][dI][dQ][dT]G[dN]G[dI]G[dL][dY][dY][dP][dP][dP][dY][dM][dL][dE][dV][dK]-NH2; also: retro-inverso) [CTLA-4 (9) RIL (150-130)] | – | – | – | – | – | – | – | – | – | – | tumor volume, between groups comparison vs PBS (p or words) [4]: < 0.05
3 | KLLSLIKGVIVHRLEGVE-GPSL-KVELMYPPPYYLGIGNGTQIY-CONH2 (KLLSLIKGVIVHRLEGVEGPSLKVELMYPPPYYLGIGNGTQIY-NH2; not fully specified; printed as KLLSLIKGVIVHRLEGVE-GPSL-KVELMYPPPYYLGIGNGTQIY-CONH2) [MVF-CTLA-4 (130)] | significant smaller tumor size | significant smaller tumor size | – | significant smaller tumor size | – | significant different longer survival | significantly smaller tumor size | significantly smaller tumor size | significantly smaller tumor size | significantly smaller tumor size | tumor volume LWW versus PBS group ([1]; CT26, day 14, listed as CTLA-4 (130)): significantly smaller tumor size; tumor volume LWW versus PBS group ([1]; CT26, day 16, listed as CTLA-4 (130)): significantly smaller tumor size; tumor volume LWW versus PBS group ([2]; 4T1, day 14, listed as CTLA-4 (130)): significantly smaller tumor size
4 | KLLSLIKGVIVHRLEGVEGPSLRQADSQVTEVCAATYMMG-CONH2 (KLLSLIKGVIVHRLEGVEGPSLRQADSQVTEVCAATYMMG-NH2; not fully specified; printed as KLLSLIKGVIVHRLEGVEGPSLRQADSQVTEVCAATYMMG-CONH2) [MVF-CTLA-4 (75)] | – | – | significant longer survival | significant smaller tumor size | significant smaller tumor size | – | significantly smaller tumor size | significantly smaller tumor size | significantly smaller tumor size | significantly smaller tumor size | tumor volume LWW versus PBS group ([2]; 4T1, day 14, listed as CTLA-4 (75)): significantly smaller tumor size; tumor volume LWW versus PBS group ([2]; 4T1, day 16, listed as CTLA-4 (75)): significantly smaller tumor size
5 | KLLSLIKGVIVHRLEGVEGPSLGNELTFLDDSICTGTSSGNQVNFHMSVVRARRNDSGTYL-CONH2 (not fully specified; printed as KLLSLIKGVIVHRLEGVEGPSLGNELTFLDDSICTGTSSGNQVNFHMSVVRARRNDSGTYL-CONH2) KLLSLIKGVIVHRLEGVEGPSLGNELTFLDDSICTGTSSGNQVNFHMSVVRARRNDSGTYL-NH2 | significant smaller tumor size | significant smaller tumor size | – | – | significant smaller tumor size | – | without difference | significantly smaller tumor size | significantly smaller tumor size | significantly smaller tumor size | tumor volume LWW versus PBS group ([1]; CT26, day 14, listed as CTLA-4 (92)): significantly smaller tumor size; tumor volume LWW versus PBS group ([1]; CT26, day 16, listed as CTLA-4 (92)): significantly smaller tumor size; tumor volume LWW versus PBS group ([2]; 4T1, day 16, listed as CTLA-4 (92)): significantly smaller tumor size
